Earlier results on three molecules are cited in US10327463B2 (priority 2015, dated 2019).

Structures can show the parent of a compound that is named as a salt.

Data set [1] deals with Clostridium species. Conditions: cured products, processed meat formulations.
For data set [2], the system named is Listeria monocytogenes. Conditions: maximum allowed level of 156 ppm, without adjunct antimicrobials.
Data set [3] has as its system C. perfringens.
Data set [4] relates to Listeria monocytogenes. Conditions: alone or with additional antimicrobials; turkey slurries with and without sodium nitrite.

For `O=NO` [sodium nitrite], the “level sufficient for the inhibition of Clostridium species” value in data set [1] was “approx. 50 ppm”. Further, the “inhibition of Listeria monocytogenes” value in data set [2] was “insufficient for the inhibition of Listeria monocytogenes”.

Consider `CC(=O)O` [acetic acid or its salt, acetic acid], for which the “inhibition of C. perfringens” value in data set [3] is recorded as “failed to inhibit C. perfringens”.

Consider `CC(=O)O.CC(=O)[O-].[Na+]` [sodium diacetate], for which the “level effective in controlling Listeria monocytogenes” value in data set [4] was 0.3-0.5%.
